Tests used:
[1] = target: T1, human vanilloid-1 (hVR-1) in hVR-1-HEK293 cell line (Homo sapiens, UniProt Q8NER1); experiment: Inhibitory effect on calcium influx via a vanilloid receptor (capsaicin-stimulated, Fluo-3/AM); format: cell-based; conditions: hVR-1-HEK293 cells, 1 μM of capsaicin, compounds 0.015˜2000 nM; read-out: I.A. (inhibitory activity), IC50 on intracellular calcium influx
T1 construct: expressed in transfected cells; host or cells: HEK293 Tet-on strain, doxycycline-induced
Method: The cell line can modulate the expression of VR-1, depending on whether doxycycline, a derivative of tetracycline, is present or not. […] Specifically, hVR-1-HEK293 cells were cultured in a T75 flask to about 80% confluency, separated from the flask by treating with trypsin solution, and then collected by centrifugation. The cells were suspended in a medium containing 1 μg/mL of doxycycline, and the resulting suspension was diluted to a concentration of 2˜4×10^5 cells/mL […], of the cell suspension was placed in each well of a 96-well black plate. The cells were cultured in 5% CO2 incubator at 37° C. for 2 days, and used for the following procedure. […] The cells prepared in 1) above were cultured at 37° C. for 90 min in a solution containing Fluo-3/AM, a fluorescent dye, as a calcium indicator so that the fluorescent dye was permeated into the cells. […] In order to stimulate calcium influx through a vanilloid receptor, the cells were treated with 1 μM of capsaicin. […] The obtained data were input to the Hill equation represented by the following formula I and the values were analyzed: Intracellular calcium influx= [(fluorescent intensity of experimental group−fluorescent intensity of background)/(fluorescent intensity of positive control−fluorescent intensity of background)]*100 [Formula I] The inhibitory activities were evaluated from the obtained intracellular calcium influx values according to the following criteria.

ICR male mice = experiment: Phenyl-p-quinone (PBQ)-induced writhing experiment using mice; format: in vivo; conditions: orally administered, PBQ (0.02%) intraperitoneally after 1 hour, writhing counted for 10 min
Method: In order to evaluate the effect on pain of the compounds prepared in the Examples, behaviors such as twisting or writhing of body resulted from pain were verified by the phenyl-p-quinone (PBQ)-induced writhing experiment using mice. 5 week-old ICR male mice were used as experimental animals and PBQ (0.02%), as a chemical stimulator. The suspensions of 20 mg of the compounds of the present invention and an excipient such as Na—CMC (sodium carboxymethyl cellulose) in 10 mL of saline were used as test compounds. The test compounds were orally administered to the mice and after 1 hour, PBQ was intraperitoneally administrated in an amount of 10 mL per kg of body weight. Also, as a control group, equivalent amounts of BCTC were administered. The writhing number of each mouse was measured for 10 min starting from 5 min after the administration, and the analgesic effect was verified by counting the reduced number compared to the control group administered with only excipient and calculating the % inhibitory rate according to the following Formula 2. % inhibition rate=(writhing # of control group−writhing # of test group)/writhing # of control group×100 [Formula 2]

T1 sequence (Q8NER1 whole entry): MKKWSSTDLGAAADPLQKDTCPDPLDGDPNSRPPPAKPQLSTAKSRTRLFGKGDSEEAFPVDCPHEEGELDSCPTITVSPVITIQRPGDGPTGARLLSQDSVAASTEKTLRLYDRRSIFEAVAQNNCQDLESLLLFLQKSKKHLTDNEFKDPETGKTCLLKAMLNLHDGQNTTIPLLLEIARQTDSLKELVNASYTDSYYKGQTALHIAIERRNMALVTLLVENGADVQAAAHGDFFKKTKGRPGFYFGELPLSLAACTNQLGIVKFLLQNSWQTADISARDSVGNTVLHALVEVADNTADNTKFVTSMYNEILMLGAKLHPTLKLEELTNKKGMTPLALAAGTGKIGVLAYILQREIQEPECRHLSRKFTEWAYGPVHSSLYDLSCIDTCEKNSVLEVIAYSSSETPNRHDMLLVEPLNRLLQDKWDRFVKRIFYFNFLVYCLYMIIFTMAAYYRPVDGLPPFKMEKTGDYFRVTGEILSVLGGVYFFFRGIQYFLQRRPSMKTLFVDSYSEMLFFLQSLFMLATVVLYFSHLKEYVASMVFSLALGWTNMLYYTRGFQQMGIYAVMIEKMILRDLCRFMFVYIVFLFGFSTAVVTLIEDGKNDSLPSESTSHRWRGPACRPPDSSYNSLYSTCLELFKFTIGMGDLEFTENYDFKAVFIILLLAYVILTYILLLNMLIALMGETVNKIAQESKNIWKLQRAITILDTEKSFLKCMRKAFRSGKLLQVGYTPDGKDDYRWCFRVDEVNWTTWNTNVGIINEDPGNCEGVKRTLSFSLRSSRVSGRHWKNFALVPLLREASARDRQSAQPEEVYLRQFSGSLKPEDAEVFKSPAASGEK

SMILES	IC50 [1]	I.A. (inhibitory activity), % inhibition rate of writhing (ICR male mice)
Cc1ccc(N2CCOc3c(-c4nc5ccc(C(F)(F)F)cc5[nH]4)cccc32)nc1 [Example 25, 4-(5-methyl-pyridin-2-yl)-8-(6-trifluoromethyl-1H-benzimidazol-2-yl)-3,4-dihydro-2H-benzo[1,4]oxazine]	20 to 100 nM	+ (<20%)
Cc1ccc(N2CCOc3c(-c4nc5c(Br)cc(C(F)(F)F)cc5[nH]4)cccc32)nc1 [Example 31, 8-(4-bromo-6-trifluoromethyl-1H-benzimidazol-2-yl)-4-(5-methyl-pyridin-2-yl)-3,4-dihydro-2H-benzo[1,4]oxazine]	20 to 100 nM	++ (20˜50%)
Cc1ccc(N2CCOc3c(-c4nc5c(F)cc(Br)cc5[nH]4)cccc32)nc1 [Example 33, 8-(6-bromo-4-fluoro-1H-benzimidazol-2-yl)-4-(5-methyl-pyridin-2-yl)-3,4-dihydro-2H-benzo[1,4]oxazine]	20 to 100 nM	+++ (51-80%)
Cc1ccc(N2c3cccc(-c4nc5ccc(C(C)(C)C)cc5[nH]4)c3OC[C@@H]2CO)nc1 [Example 34, [(S)-8-(6-tert-butyl-1H-benzimidazol-2-yl)-4-(5-methyl-pyridin-2-yl)-3,4-dihydro-2H-benzo[1,4]oxazin-3-yl]-methanol]	< 20 nM	+ (<20%)
Cc1ccc(N2c3cccc(-c4nc5ccc(C(F)(F)F)cc5[nH]4)c3OC[C@@H]2CO)nc1 [Example 35, [(S)-4-(5-methyl-pyridin-2-yl)-8-(6-trifluoromethyl-1H-benzimidazol-2-yl)-3,4-dihydro-2H-benzo[1,4]oxazin-3-yl]-methanol]	< 20 nM	+++ (51-80%)
Cc1ccc(N2c3cccc(-c4nc5ccc(Cl)cc5[nH]4)c3OC[C@@H]2CO)nc1 [Example 37, [(S)-8-(6-chloro-1H-benzimidazol-2-yl)-4-(5-methyl-pyridin-2-yl)-3,4-dihydro-2H-benzo[1,4]oxazin-3-yl]-methanol]	20 to 100 nM	+++ (51-80%)
Cc1ccc(N2c3cccc(-c4nc5c(C(F)(F)F)cc(C(F)(F)F)cc5[nH]4)c3OC[C@@H]2CO)nc1 [Example 40, [(S)-8-(4,6-bis-trifluoromethyl-1H-benzimidazol-2-yl)-4-(5-methyl-pyridin-2-yl)-3,4-dihydro-2H-benzo[1,4]oxazin-3-yl]-methanol]	20 to 100 nM	++++ (>80%)
Cc1ccc(N2c3cccc(-c4nc5c(Br)cc(C(F)(F)F)cc5[nH]4)c3OC[C@@H]2CO)nc1 [Example 41, [(S)-8-(4-bromo-6-trifluoromethyl-1H-benzimidazol-2-yl)-4-(5-methyl-pyridin-2-yl)-3,4-dihydro-2H-benzo[1,4]oxazin-3-yl]-methanol]	< 20 nM	++ (20˜50%)
Cc1ccc(N2c3cccc(-c4nc5ccc(OC(F)(F)F)cc5[nH]4)c3OC[C@@H]2CO)nc1 [Example 47, [(S)-4-(5-methyl-pyridin-2-yl)-8-(6-trifluoromethoxy-1H-benzimidazol-2-yl)-3,4-dihydro-2H-benzo[1,4]oxazin-3-yl]-methanol]	< 20 nM	++ (20˜50%)
Cc1ccc(N2c3cccc(-c4nc5c(C)cccc5[nH]4)c3OC[C@@H]2CO)nc1 [Example 50, [(S)-8-(4-methyl-1H-benzimidazol-2-yl)-4-(5-methyl-pyridine-2-yl)-3,4-dihydro-2H-benzo[1,4]oxazin-3-yl]-methanol]	< 20 nM	+ (<20%)
Cc1ccc(N2c3cccc(-c4nc5c(C)c(C)ccc5[nH]4)c3OC[C@@H]2CO)nc1 [Example 52, [(S)-8-(4,5-dimethyl-1H-benzimidazol-2-yl)-4-(5-methyl-pyridin-2-yl)-3,4-dihydro-2H-benzo[1,4]oxazin-3-yl]-methanol]	< 20 nM	++ (20˜50%)

Further lines, with some results ahead:

IC50 [1]	SMILES	I.A. (inhibitory activity), % inhibition rate of writhing (ICR male mice)
20 to 100 nM	Cc1ccc(N2CCOc3c(-c4nc5cc(Cl)c(Cl)cc5[nH]4)cccc32)nc1 [Example 28, 8-(5,6-dichloro-1H-benzimidazol-2-yl)-4-(5-methyl-pyridin-2-yl)-3,4-dihydro-2H-benzo[1,4]oxazine]	+ (<20%)
< 20 nM	Cc1ccc(N2c3cccc(-c4nc5ccc(Br)cc5[nH]4)c3OC[C@@H]2CO)nc1 [Example 36, [(S)-8-(6-bromo-1H-benzimidazol-2-yl)-4-(5-methyl-pyridin-2-yl)-3,4-dihydro-2H-benzo[1,4]oxazin-3-yl]-methanol]	+++ (51-80%)
< 20 nM	Cc1ccc(N2c3cccc(-c4nc5cc(Cl)c(Cl)cc5[nH]4)c3OC[C@@H]2CO)nc1 [Example 38, [(S)-8-(5,6-dichloro-1H-benzimidazol-2-yl)-4-(5-methyl-pyridin-2-yl)-3,4-dihydro-2H-benzo[1,4]oxazin-3-yl]-methanol]	+++ (51-80%)
< 20 nM	Cc1ccc(N2c3cccc(-c4nc5c(Cl)cc(C(F)(F)F)cc5[nH]4)c3OC[C@@H]2CO)nc1 [Example 39, [(S)-8-(4-chloro-6-trifluoromethyl-1H-benzimidazol-2-yl)-4-(5-methyl-pyridin-2-yl)-3,4-dihydro-2H-benzo[1,4]oxazin-3-yl]-methanol]	+++ (51-80%)
20 to 100 nM	Cc1ccc(N2c3cccc(-c4nc5c(Br)cc(Br)cc5[nH]4)c3OC[C@@H]2CO)nc1 [Example 42, [(S)-8-(4,6-dibromo-1H-benzimidazol-2-yl)-4-(5-methyl-pyridin-2-yl)-3,4-dihydro-2H-benzo[1,4]oxazin-3-yl]-methanol]	+++ (51-80%)
< 20 nM	Cc1ccc(N2c3cccc(-c4nc5c(F)cc(Br)cc5[nH]4)c3OC[C@@H]2CO)nc1 [Example 43, [(S)-8-(6-bromo-4-fluoro-1H-benzimidazol-2-yl)-4-(5-methyl-pyridin-2-yl)-3,4-dihydro-2H-benzo[1,4]oxazin-3-yl]-methanol]	++ (20˜50%)
< 20 nM	Cc1ccc(N2c3cccc(-c4nc5cc(F)c(F)cc5[nH]4)c3OC[C@@H]2CO)nc1 [Example 44, [(S)-8-(5,6-difluoro-1H-benzimidazol-2-yl)-4-(5-methyl-pyridin-2-yl)-3,4-dihydro-2H-benzo[1,4]oxazin-3-yl]-methanol]	++++ (>80%)
< 20 nM	Cc1ccc(N2c3cccc(-c4nc5cc(F)c(Cl)cc5[nH]4)c3OC[C@@H]2CO)nc1 [Example 45, [(S)-8-(6-chloro-5-fluoro-1H-benzimidazol-2-yl)-4-(5-methyl-pyridin-2-yl)-3,4-dihydro-2H-benzo[1,4]oxazin-3-yl]-methanol]	+++ (51-80%)
< 20 nM	Cc1ccc(N2c3cccc(-c4nc5c(C)cc(Br)cc5[nH]4)c3OC[C@@H]2CO)nc1 [Example 46, [(S)-8-(6-bromo-4-methyl-1H-benzimidazol-2-yl)-4-(5-methyl-pyridin-2-yl)-3,4-dihydro-2H-benzo[1,4]oxazin-3-yl]-methanol]	++ (20˜50%)
20 to 100 nM	COc1ccc2nc(-c3cccc4c3OC[C@H](CO)N4c3ccc(C)cn3)[nH]c2c1 [Example 48, [(S)-8-(6-methoxy-1H-benzimidazol-2-yl)-4-(5-methyl-pyridin-2-yl)-3,4-dihydro-2H-benzo[1,4]oxazin-3-yl]-methanol]	++ (20˜50%)
< 20 nM	Cc1ccc(N2c3cccc(-c4nc5ccc(F)cc5[nH]4)c3OC[C@@H]2CO)nc1 [Example 49, [(S)-8-(6-fluoro-1H-benzimidazol-2-yl)-4-(5-methyl-pyridin-2-yl)-3,4-dihydro-2H-benzo[1,4]oxazin-3-yl]-methanol]	+++ (51-80%)
< 20 nM	Cc1ccc(N2c3cccc(-c4nc5cc(C)ccc5[nH]4)c3OC[C@@H]2CO)nc1 [Example 51, [(S)-8-(5-methyl-1H-benzimidazol-2-yl)-4-(5-methyl-pyridin-2-yl)-3,4-dihydro-2H-benzo[1,4]oxazin-3-yl]-methanol]	+ (<20%)

Source: patent US8362012B2, “Benzoxazine benzimidazole derivative, a pharmaceutical composition comprising the same, and a use thereof” (Daewoong Pharmaceutical Co., Ltd., priority 2008, dated 2013)
